Assays:
Format in all cases: biochemical
[1] = target: ROCK1 (Homo sapiens, UniProt Q13464); experiment: radiometric […]-ATP P81 filter binding kinase assay, 10-dose IC50 ([…] ATP)
[2] = target: T1, ROCK2 (Homo sapiens, UniProt O75116); experiment: as above
[3] = target: T1, ROCK2; experiment: radiometric […]-ATP kinase assay, single concentration […], percent inhibition

T1 sequence (O75116 whole entry): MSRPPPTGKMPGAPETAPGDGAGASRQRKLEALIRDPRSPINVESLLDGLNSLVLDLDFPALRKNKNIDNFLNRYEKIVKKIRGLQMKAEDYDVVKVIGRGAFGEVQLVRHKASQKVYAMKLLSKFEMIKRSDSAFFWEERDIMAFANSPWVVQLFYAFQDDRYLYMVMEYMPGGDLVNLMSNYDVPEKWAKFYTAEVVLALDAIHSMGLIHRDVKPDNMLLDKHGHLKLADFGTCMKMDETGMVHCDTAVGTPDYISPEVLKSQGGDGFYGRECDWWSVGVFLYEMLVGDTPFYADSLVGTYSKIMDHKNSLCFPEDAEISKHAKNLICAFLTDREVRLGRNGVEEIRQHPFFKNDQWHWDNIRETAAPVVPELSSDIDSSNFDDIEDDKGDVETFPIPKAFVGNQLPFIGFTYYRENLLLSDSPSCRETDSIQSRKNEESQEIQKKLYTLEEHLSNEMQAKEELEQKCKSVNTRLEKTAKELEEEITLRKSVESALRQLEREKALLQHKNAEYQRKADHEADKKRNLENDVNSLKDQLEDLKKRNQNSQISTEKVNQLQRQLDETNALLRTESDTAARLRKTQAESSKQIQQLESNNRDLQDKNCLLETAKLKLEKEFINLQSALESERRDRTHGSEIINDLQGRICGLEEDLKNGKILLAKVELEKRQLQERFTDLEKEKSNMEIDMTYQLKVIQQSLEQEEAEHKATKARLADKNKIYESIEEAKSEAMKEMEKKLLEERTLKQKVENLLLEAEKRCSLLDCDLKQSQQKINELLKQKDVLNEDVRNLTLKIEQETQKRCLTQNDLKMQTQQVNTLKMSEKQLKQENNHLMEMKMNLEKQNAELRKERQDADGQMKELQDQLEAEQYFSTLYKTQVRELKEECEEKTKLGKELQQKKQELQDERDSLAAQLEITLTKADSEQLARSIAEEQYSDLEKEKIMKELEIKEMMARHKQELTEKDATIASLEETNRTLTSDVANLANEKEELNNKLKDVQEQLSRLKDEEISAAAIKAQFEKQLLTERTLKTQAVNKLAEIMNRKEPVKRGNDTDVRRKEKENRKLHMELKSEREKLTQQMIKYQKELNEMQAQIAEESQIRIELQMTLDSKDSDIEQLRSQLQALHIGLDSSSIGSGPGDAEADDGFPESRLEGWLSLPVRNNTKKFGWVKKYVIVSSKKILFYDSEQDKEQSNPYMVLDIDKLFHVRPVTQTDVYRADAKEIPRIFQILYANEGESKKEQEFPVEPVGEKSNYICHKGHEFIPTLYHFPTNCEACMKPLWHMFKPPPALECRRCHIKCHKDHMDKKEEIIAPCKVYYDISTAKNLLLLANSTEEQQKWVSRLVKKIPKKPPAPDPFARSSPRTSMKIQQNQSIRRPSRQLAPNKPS
Sequence of ROCK1 (Q13464 2-1354): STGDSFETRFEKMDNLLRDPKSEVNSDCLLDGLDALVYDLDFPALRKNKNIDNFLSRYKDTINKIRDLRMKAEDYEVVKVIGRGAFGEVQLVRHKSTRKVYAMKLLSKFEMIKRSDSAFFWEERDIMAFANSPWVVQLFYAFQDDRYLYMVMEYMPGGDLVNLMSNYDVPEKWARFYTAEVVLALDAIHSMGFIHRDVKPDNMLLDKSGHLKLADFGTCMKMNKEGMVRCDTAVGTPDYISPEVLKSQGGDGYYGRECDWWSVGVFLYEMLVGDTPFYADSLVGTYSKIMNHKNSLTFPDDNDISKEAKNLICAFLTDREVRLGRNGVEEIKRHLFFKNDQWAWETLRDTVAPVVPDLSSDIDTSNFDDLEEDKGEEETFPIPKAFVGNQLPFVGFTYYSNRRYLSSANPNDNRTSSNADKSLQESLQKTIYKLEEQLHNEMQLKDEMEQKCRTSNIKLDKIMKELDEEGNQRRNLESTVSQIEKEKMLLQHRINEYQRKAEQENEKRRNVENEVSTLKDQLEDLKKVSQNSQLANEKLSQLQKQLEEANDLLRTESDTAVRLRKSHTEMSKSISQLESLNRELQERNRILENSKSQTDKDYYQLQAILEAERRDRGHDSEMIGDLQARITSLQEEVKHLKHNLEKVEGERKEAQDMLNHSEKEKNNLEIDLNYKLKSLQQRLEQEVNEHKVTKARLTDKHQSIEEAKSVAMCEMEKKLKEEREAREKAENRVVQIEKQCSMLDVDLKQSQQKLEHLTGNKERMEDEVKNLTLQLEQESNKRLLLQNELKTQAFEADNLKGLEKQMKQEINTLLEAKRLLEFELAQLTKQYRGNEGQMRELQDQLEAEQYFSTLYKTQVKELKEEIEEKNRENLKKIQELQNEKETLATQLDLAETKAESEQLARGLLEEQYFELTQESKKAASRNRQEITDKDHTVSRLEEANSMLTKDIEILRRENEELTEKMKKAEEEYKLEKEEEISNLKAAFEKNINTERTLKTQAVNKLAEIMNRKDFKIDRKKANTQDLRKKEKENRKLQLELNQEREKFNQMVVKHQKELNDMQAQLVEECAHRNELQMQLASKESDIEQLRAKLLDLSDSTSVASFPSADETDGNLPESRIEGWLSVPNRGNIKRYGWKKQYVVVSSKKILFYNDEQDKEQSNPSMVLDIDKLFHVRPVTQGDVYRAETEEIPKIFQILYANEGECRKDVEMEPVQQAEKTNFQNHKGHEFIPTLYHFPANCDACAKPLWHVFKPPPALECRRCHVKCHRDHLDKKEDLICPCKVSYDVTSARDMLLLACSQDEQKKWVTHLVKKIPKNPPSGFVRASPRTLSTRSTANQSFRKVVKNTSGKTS

| IC50 [1] | IC50 [2] | inhibition at 10 µM [3] | Structure (SMILES) |
| --- | --- | --- | --- |
| 4.22 µM | 6.13 µM | – | Cc1cc(F)ccc1CN1CCCN(S(=O)(=O)c2cccc3cnccc23)CC1 [C-19, 5-[4-(4-Fluoro-2-methyl-benzyl)-[1,4]diazepane-1sulfonyl]-isoquinoline] |
| – | – | 72.5% | COc1cc(CN2CCCN(C(=O)/C=C/c3ccncc3)CC2)ccc1O [C-22, 1-[4-(4-Hydroxy-3-methoxy-benzyl)-[1,4]diazepan-1-yl]-3-pyridin-4-yl-propenone] |
